Here are results for 15 molecules from patent US20150045341A1, “DISUBSTITUTED ARYL AZETIDINE DERIVATIVES AS SPHINGOSINE-1 PHOSPHATE RECEPTORS MODULATORS” (Allergan, Inc., priority 2013, published 2015).

The target of the experiment is T1, human S1P1 receptor (Homo sapiens, UniProt P21453).
T1 construct: expressed in transfected cells; membranes from cells stably expressing the S1P1 receptor
Description: GTP γ35S binding assay for S1P1 activity. The format is biochemical. To be noted: membranes of cells stably expressing the S1P1 receptor, test compounds 0.08 to 5,000 nM, 30 min at 25° C. The method, then:
Compounds were synthesized and tested for S1P1 activity using the GTP γ^35S binding assay. These compounds may be assessed for their ability to activate or block activation of the human S1P1 receptor in cells stably expressing the S1P1 receptor.
GTP γ^35S binding was measured in the medium containing (mM) HEPES 25, pH 7.4, MgCl2 10, NaCl 100, dithiothreitol 0.5, digitonin 0.003%, 0.2 nM GTP γ^35S, and 5 μg membrane protein in a volume of 150 μl. Test compounds were included in the concentration range from 0.08 to 5,000 nM unless indicated otherwise. Membranes were incubated with 100 μM 5′-adenylylimidodiphosphate for 30 min, and subsequently with 10 μM GDP for 10 min on ice. Drug solutions and membrane were mixed, and then reactions were initiated by adding GTP γ^35S and continued for 30 min at 25° C. Reaction mixtures were filtered over Whatman GF/B filters under vacuum, and washed three times with 3 mL of ice-cold buffer (HEPES 25, pH7.4, MgCl2 10 and NaCl 100). Filters were dried and mixed with scintillant, and counted for ^35S activity using a β-counter. Agonist-induced GTP γ^35S binding was obtained by subtracting that in the absence of agonist. Binding data were analyzed using a non-linear regression method. In case of antagonist assay, the reaction mixture contained 10 nM […] in the presence of test antagonist at concentrations ranging from 0.08 to 5000 nM.

T1 sequence (P21453 whole entry): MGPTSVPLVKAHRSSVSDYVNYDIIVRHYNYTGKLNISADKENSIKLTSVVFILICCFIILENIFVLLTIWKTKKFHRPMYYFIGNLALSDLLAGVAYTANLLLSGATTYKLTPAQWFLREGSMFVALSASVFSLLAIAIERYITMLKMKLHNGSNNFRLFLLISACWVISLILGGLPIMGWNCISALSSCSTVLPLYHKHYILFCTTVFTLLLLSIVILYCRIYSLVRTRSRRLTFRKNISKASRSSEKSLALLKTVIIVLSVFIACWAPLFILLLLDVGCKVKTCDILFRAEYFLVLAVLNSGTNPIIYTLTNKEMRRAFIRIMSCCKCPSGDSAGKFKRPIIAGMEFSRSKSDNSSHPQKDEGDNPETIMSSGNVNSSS

For the molecule `CCCCC(CCCOc1ccc(CN2CC(C(=O)O)C2)cc1Cl)Cc1ccc(C)c(C)c1` (stereo not drawn) [1-(3-chloro-4-{[4-(3,4-dimethylbenzyl)octyl]oxy}benzyl)azetidine-3-carboxylic acid], the EC50 is 2.71 nM.
`CCCC(CCCOc1c(C)cc(CN2CC(C(=O)O)C2)cc1C)Cc1ccc(C)c(C)c1` (stereo not drawn) [1-(4-{[4-(3,4-dimethylbenzyl)heptyl]oxy}-3,5-dimethylbenzyl)azetidine-3-carboxylic acid] had an EC50 of 2.05 nM. This EC50 and that of the molecule before are within 1.5-fold of each other.
For `CCCCC(CCCOc1c(F)cc(CN2CC(C(=O)O)C2)cc1OC)Cc1ccc(C)c(C)c1` (stereo not drawn) [1-(4-{[4-(3,4-dimethylbenzyl)octyl]oxy}-3-fluoro-5-methoxybenzyl)azetidine-3-carboxylic acid] the value was 2.91 nM; for `CCCCC(CCCOc1ccc(CN2CC(C(=O)O)C2)cc1F)Cc1ccc(C)c(C)c1` (stereo not drawn) [1-(4-{[4-(3,4-dimethylbenzyl)octyl]oxy}-3-fluorobenzyl)azetidine-3-carboxylic acid], 5.42 nM; for `CCCCCC(CCCOc1ccc(CN2CC(C(=O)O)C2)cc1)Cc1ccc(C)c(C)c1` (stereo not drawn) [Compound 1, 1-(4-{[4-(3,4-Dimethylbenzyl)nonyl]oxy}benzyl)azetidine-3-carboxylic acid], 6.04 nM.
`CCCCC(CCCOc1ccc(CN2CC(C(=O)O)C2)cc1)Cc1ccc(C)c(C)c1` (stereo not drawn) [Compound 2, 1-(4-{[4-(3,4-Dimethylbenzyl)octyl]oxy}benzyl)azetidine-3-carboxylic acid] gave an EC50 of 1.03 nM. Against the preceding molecule, the EC50 is about 5.9-fold lower.
`CCCC(CCCOc1ccc(CN2CC(C(=O)O)C2)cc1)Cc1ccc(C)c(C)c1` (stereo not drawn) [Compound 3, 1-(4-{[4-(3,4-Dimethylbenzyl)heptyl]oxy}benzyl)azetidine-3-carboxylic acid] displayed an EC50 of 6.51 nM.
For `CCC(CCCOc1ccc(CN2CC(C(=O)O)C2)cc1)Cc1ccc(C)c(C)c1` (stereo not drawn) [Compound 4, 1-(4-{[4-(3,4-Dimethylbenzyl)hexyl]oxy}benzyl)azetidine-3-carboxylic acid] the value was 69.2 nM.
For `CCCCCCC(CCCOc1ccc(CN2CC(C(=O)O)C2)cc1)Cc1ccc(C)c(C)c1` (stereo not drawn) [Compound 5, 1-(4-{[4-(3,4-Dimethylbenzyl)decyl]oxy}benzyl)azetidine-3-carboxylic acid] the value was 102 nM; for `CCCCC(CCCOc1c(C)cc(CN2CC(C(=O)O)C2)cc1C)Cc1ccc(C)c(C)c1` (stereo not drawn) [Compound 6, 1-(4-{[4-(3,4-Dimethylbenzyl)octyl]oxy}-3,5-dimethylbenzyl)azetidine-3-carboxylic acid], 11.7 nM; for `CCCCC(CCCOc1ccc(CN2CC(C(=O)O)C2)cc1C)Cc1ccc(C)c(C)c1` (stereo not drawn) [Compound 7, 1-(4-{[4-(3,4-Dimethylbenzyl)octyl]oxy}-3-dimethylbenzyl)azetidine-3-carboxylic acid], 5.8 nM.
Molecule `CCCCC(CCCOc1ccc(CN2CC(C(=O)O)C2)cc1Br)Cc1ccc(C)c(C)c1` (stereo not drawn) [Compound 8, 1-(3-Bromo-4-{[4-(3,4-dimethylbenzyl)octyl]oxy}benzyl)azetidine-3-carboxylic acid] returned an EC50 of 6.54 nM.
Molecule `CCCCCC(CCCOc1ccc(CN2CC(C(=O)O)C2)cc1Cl)Cc1ccc(C)c(C)c1` (stereo not drawn) [Compound 13, 1-(3-Chloro-4-{[4-(3,4-dimethylbenzyl)nonyl]oxy}benzyl)azetidine-3-carboxylic acid] registered an EC50 of 13.8 nM. Compared with the last molecule, the EC50 is about 2.1-fold higher.
In the case of `CCCC(CCCOc1ccc(CN2CC(C(=O)O)C2)cc1Cl)Cc1ccc(C)c(C)c1` (stereo not drawn) [Compound 14, 1-(3-Chloro-4-{[4-(3,4-dimethylbenzyl)heptyl]oxy}benzyl)azetidine-3-carboxylic acid], the EC50 amounted to 11.6 nM.
For `CCCC(CCCOc1ccc(CN2CC(C(=O)O)C2)cc1C)Cc1ccc(C)c(C)c1` (stereo not drawn) [Compound 16, 1-(4-{[4-(3,4-Dimethylbenzyl)heptyl]oxy}-3-methylbenzyl)azetidine-3-carboxylic acid] the value was 21.2 nM.

As a reminder, the EC50 is the concentration at which the effect is half-maximal. Read a high EC50 as lower potency in that assay.
